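Following 48 hours of exposure in 96-well plates, responses at five concentrations were used to interpolate endpoints linearly. Here, GI50 denotes the concentration required for 50% inhibition of growth. TGI denotes the concentration required for complete inhibition of growth.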

Holding throughout (assay): NCI anticancer screen, dose series, 48 h
Assay [1] deals with A549 NSCLC.
In assay [2] the test system is HCT-116 colon.
Assay [3] has as its system HOP-62 NSCLC.
The test system of assay [4] is RXF 393 renal.
Assay [5] has as its system SF-295 CNS.
In assay [6] the test system is SK-OV-3 ovarian.
Assay [7] concerns SNB-75 CNS.
Assay [8] concerns UACC-62 melanoma.

As for `COc1cc(-c2nnc3n2NC=C(C(=O)O)S3)cc(OC)c1OC`, the TGI in assay [1] was more than 100 µM; in assay [2], more than 68.8 µM; in assay [3] it was more than 100 µM; in assay [4], more than 100 µM; in assay [5], more than 100 µM; in assay [6], more than 100 µM. Also, the TGI in assay [7] and in assay [8] was more than 100 µM in each case.

For the compound `CCOC(=O)C(C)(c1c(C)[nH]c2ccccc12)c1c(C)[nH]c2ccccc12`, the TGI in assay [1] came out at 49.7 µM; in assay [2] it was 25 µM; in assay [3] it was 43.6 µM; in assay [4], 25.8 µM; in assay [5], 29 µM; in assay [6], 52.9 µM. Further, the TGI is 48.6 µM in assay [7] and 29.6 µM in assay [8].

Turning to `Cc1ccc(C)c(N2C(=O)C(=O)C(c3nc4ccccc4o3)/C(=N/N)C2=O)c1` (centres undefined), the TGI in assay [1], in assay [2], in assay [3], in assay [4], in assay [5] and in assay [6] was more than 100 µM in each case. Also, the TGI in assay [7] and in assay [8] was more than 100 µM each time.

As for `NC(=O)c1cn(Cc2ccccc2)c(=O)n1Cc1ccccc1`, the TGI in assay [1], in assay [2], in assay [3], in assay [4], in assay [5] and in assay [6] was more than 100 µM throughout. Moreover, the TGI in assay [7] and in assay [8] was more than 100 µM each time.

In the case of `O=C1c2ccc3c4ccccc4n(-c4ccccc4)c3c2C(=O)N1c1ccc(Cl)cc1`, the TGI in assay [1], in assay [2], in assay [3], in assay [4], in assay [5] and in assay [6] was more than 100 µM in each case. For the same compound, the TGI in assay [7] and in assay [8] was more than 100 µM in each case.

Take `CCCCCCCCCCCCCCCCCCC1=C(O)C(=O)C=C(OC)C1=O`: the TGI in assay [1], in assay [2], in assay [3], in assay [4], in assay [5] and in assay [6] was more than 100 µM each time. In addition, the TGI in assay [7] and in assay [8] was more than 100 µM each time.

On to `CCOC(=O)C1=C(Nc2ccc(Br)cc2)OCC1=O`, for which the TGI in assay [1], in assay [2], in assay [3], in assay [4], in assay [5] and in assay [6] was more than 100 µM throughout. The TGI in assay [7] and in assay [8] was more than 100 µM in each case.

For `O=C1C=CC(=CC=C2C=CN(CCCCCCCCCCC(=O)NCCCCCCCCCCCC(=O)O)C=C2)C=C1`, the TGI in assay [1], in assay [2], in assay [3], in assay [4], in assay [5] and in assay [6] was more than 100 µM in each case. For the same compound, the TGI in assay [7] and in assay [8] was more than 100 µM in each case.

Take `Cc1ccc(N2C(=O)N(c3ccc(C)cc3)C3(SC=NN3C)C2=O)cc1` (centres undefined): the TGI in assay [1], in assay [2], in assay [3], in assay [4], in assay [5] and in assay [6] was more than 100 µM each time. For the same compound, the TGI in assay [7] and in assay [8] was more than 100 µM in each case.

For `Cc1c(Cl)cccc1NC(=O)c1cccc([N+](=O)[O-])c1O`, the TGI was more than 72.1 µM in assay [1]; 40 µM in assay [2]; 29.3 µM in assay [3]; 19.7 µM in assay [4]; 65 µM in assay [5]; more than 80.2 µM in assay [6]. Moreover, the TGI in assay [7] turned out to be 66.1 µM; in assay [8] it was 7.74 µM.

As for `N#Cc1c(-c2ccco2)cc(-c2ccc(N)cc2)[nH]c1=O`, the TGI in assay [1], in assay [2], in assay [3], in assay [4], in assay [5] and in assay [6] was more than 100 µM in each case. Moreover, the TGI in assay [7] and in assay [8] was more than 100 µM in each case.

Take `CCC[CH2][Sn]1([CH2]CCC)[O]CC(COc2c(Cl)cc(Cl)cc2Cl)[O]1` (centres undefined): the GI50 in assay [1] is 5.15 µM; in assay [2] it was 1.67 µM; in assay [3] it was 2.63 µM; in assay [4], 1.27 µM; in assay [5] it was 1.9 µM; in assay [6], 4.18 µM. The GI50 in assay [7] is 1.17 µM; in assay [8] it was 1.48 µM. In addition, the TGI in assay [1] was found to be 17.7 µM; in assay [2] it was 3.03 µM; in assay [3] it was 7.97 µM; in assay [4], 2.73 µM; in assay [5] it was 3.37 µM; in assay [6] it was 12.3 µM. For the same compound, the TGI was 3.77 µM in assay [7] and 2.86 µM in assay [8].

The values are drawn from PubChem BioAssay (NCI).
